Measured values from patent publication US9745273B2, “Phenazine derivatives as anti-neoplastic agents and anti-infective agents” (Universitetet I Oslo, priority 2013, dated 2017).

Experiments:
Solubility in water = format: physicochemical
Description: In the prior art, these problems are not properly addressed. […] In DE 2016467, DE 2115660, U.S. Pat. No. 3,929,790, U.S. Pat. No. 3,937,707, WO 2008/089283, and in Alonso et al, Chem. Comm. 2004, 41, 412-413, methods to alkylate iodinin or myxin via their alkali salts is described. However, the functional groups introduced were alkyl groups, rendering the derivatives less water soluble than the parent compounds. No discussion of improvement in water solubility was described.

[1] = test system: leukaemia cell lines and AML-patient blasts; details: cited from earlier work
[2] = Solubility in biocompatible and organic solvents; format: physicochemical
Description: However, production of nano-carriers by emulsion-evaporation merit that the compound to be encapsulated must be dissolved in an organic solvent that is immiscible with water. The present invention enables the production of iodinin-encapsulated nanocarriers—iodinin and a biodegradable polymer can be dissolved in chloroform and mixed with water to make a nano-suspension, and organic solvent evaporated to co-precipitate the polymer with iodinin. To improve the nanonization of iodinin, a polymer can be precipitated to produce nanoparticles. The advantage of incorporating iodinin itself into a biodegradable polymer is that the drug load in the formulation may be higher. The particles may be coated with monoclonal antibodies, e.g. CD11 or CD33 against AML.

intestinal mucosa = details: mouse, direct infusion of supra-saturated solution into the gut through a tube; cited from earlier work
mouse sarcoma model = details: in vivo; cited from earlier work
rat cardiomyoblasts = details: at comparable anti-AML activity; cited from earlier work
blood platelets = details: at comparable anti-AML activity; cited from earlier work
certain other bacteria = details: cited from earlier work
[3] = test system: peripheral blood leukocytes (PBL); details: at comparable anti-AML activity; cited from earlier work

## [O-][n+]1c2cccc(O)c2[n+]([O-])c2cccc(O)c21 [iodinin, 1,6-dihydroxyphenazine-5,10-dioxide]
Solubility in water
  solubility in water: practically insoluble
[1]
  potency against leukaemia cell lines and AML-patient blasts: particularly potent
[1]; iodinin extracted from marine actinomycetes bacteria
  effect on AML cells: pronounced effect
[2]; biocompatible solvents
  solubility in biocompatible solvents: poorly soluble
[2]; organic solvents such as toluene and chloroform
  solubility in organic solvents: soluble
Intestinal mucosa
  intestinal symptoms / histological alteration of the intestinal mucosa: failed to cause any intestinal symptoms or histologically detectable alteration of the intestinal mucosa
Mouse sarcoma model
  activity against a mouse sarcoma model: low activity
Rat cardiomyoblasts
  toxicity towards rat cardiomyoblasts versus DNR: less toxic than DNR
Blood platelets
  toxicity towards blood platelets versus DNR: less toxic than DNR
Certain other bacteria
  inhibition of growth of other bacteria: inhibit the growth
[3]
  toxicity towards peripheral blood leukocytes (PBL) versus DNR: less toxic than DNR

## COc1cccc2c1[n+]([O-])c1cccc(O)c1[n+]2[O-] [myxin]
Solubility in water
  solubility in water: practically insoluble
Mouse sarcoma model
  activity against a mouse sarcoma model: low activity
